What was measured:
Type in all cases: cell-based
[1] = test system: Escherichia coli K-12 MG1655 knockout mutants; assay: Growth Profiler growth screening of K-12 MG1655 single, double and triple knockout mutants in glutaric or adipic acid
[2] = test system: Escherichia coli K-12 MG1655 evolved isolates and knockout mutants; assay: Biolector growth screening of evolved isolates and reconstructed (knockout) mutants in glutaric or adipic acid
Experimental: Biological triplicate cultures of each strain were grown to saturation overnight in 96 well deepwell plates containing 300 μL M9+1% glucose. The next day, cells were diluted 1:10 in deionized water in a clear 96 well plate and the OD600 was measured on a BioTek plate reader. 48 well FlowerPlates containing a final volume of 1.4 mL of M9+1/o glucose (plus relevant chemical) were inoculated to OD600 0.03 (with plate reader pathlength, 200 μL volume) with the overnight culture and sealed with Breathseal film. Light backscatter intensity was monitored in a Biolector microbioreactor system at 37° C. with 1000 rpm shaking.
Each re-sequenced isolate was characterized using the Biolector system for growth at the screening concentration of chemical (47.5 g/L glutaric acid or 50 g/L adipic acid) in biological triplicates.

[3] = test system: Escherichia coli K-12 MG1655; assay: Screening for tolerance in wild-type cells: growth in varying concentrations of neutralized diacid, Biolector; settings: for tlag (lag time), mean / μ (growth rate), mean: neutralized with sodium hydroxide
In short: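 Mid-exponential cells (back-diluted to OD600 0.7) inoculated into M9 + 1% glucose containing varying concentrations of glutaric or adipic acid neutralized to pH 7.0 with NaOH. Growth monitored in a Biolector microbioreactor at 37 °C, 1000 rpm shaking.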

[4] = strain MG1655, M9 + 23.8 g/L glutarate (neutralized)
[5] = strain MG1655, M9 + 47.5 g/L glutarate (neutralized)
[6] = strain MG1655 kgtP::kan, M9 + 23.8 g/L glutarate (neutralized)
[7] = strain MG1655 kgtP::kan, M9 + 47.5 g/L glutarate (neutralized)
[8] = strain MG1655 ΔkgtP nagC::kan, M9 + 23.8 g/L glutarate (neutralized)
[9] = strain MG1655 ΔkgtP nagC::kan, M9 + 47.5 g/L glutarate (neutralized)
[10] = strain MG1655 ΔkgtP proV::kan, M9 + 23.8 g/L glutarate (neutralized)
[11] = strain MG1655 ΔkgtP rnb::kan, M9 + 23.8 g/L glutarate (neutralized)
[12] = strain MG1655 ΔkgtP rnb::kan, M9 + 47.5 g/L glutarate (neutralized)
[13] = strain MG1655 ΔkgtP sspA::kan, M9 + 23.8 g/L glutarate (neutralized)
[14] = strain MG1655 ΔkgtP ΔproV nagC::kan, M9 + 23.8 g/L glutarate (neutralized)
[15] = strain MG1655 ΔkgtP ΔproV nagC::kan, M9 + 47.5 g/L glutarate (neutralized)
[16] = strain GLUT1-3, M9 + 47.5 g/L glutaric acid (neutralized with sodium hydroxide)
[17] = strain GLUT1-3, M9 + 47.5 g/L glutaric acid (neutralized), knockout experiment (Table 14)
[18] = strain GLUT1-9, M9 + 47.5 g/L glutaric acid (neutralized with sodium hydroxide)
[19] = strain GLUT1-10, M9 + 47.5 g/L glutaric acid (neutralized with sodium hydroxide)
[20] = strain GLUT1-10, M9 + 47.5 g/L glutaric acid (neutralized), knockout experiment (Table 14)
[21] = strain GLUT2-1, M9 + 47.5 g/L glutaric acid (neutralized with sodium hydroxide)
[22] = strain GLUT2-9, M9 + 47.5 g/L glutaric acid (neutralized with sodium hydroxide)
[23] = strain GLUT2-10, M9 + 47.5 g/L glutaric acid (neutralized with sodium hydroxide)
[24] = strain GLUT3-5, M9 + 47.5 g/L glutaric acid (neutralized with sodium hydroxide)
[25] = strain GLUT3-7, M9 + 47.5 g/L glutaric acid (neutralized with sodium hydroxide)
[26] = strain GLUT3-9, M9 + 47.5 g/L glutaric acid (neutralized with sodium hydroxide)
[27] = strain GLUT4-1, M9 + 47.5 g/L glutaric acid (neutralized with sodium hydroxide)
[28] = strain GLUT4-1, M9 + 47.5 g/L glutaric acid (neutralized), knockout experiment (Table 14)
[29] = strain GLUT4-4, M9 + 47.5 g/L glutaric acid (neutralized with sodium hydroxide)
[30] = strain GLUT4-10, M9 + 47.5 g/L glutaric acid (neutralized with sodium hydroxide)
[31] = strain GLUT5-4, M9 + 47.5 g/L glutaric acid (neutralized with sodium hydroxide)
[32] = strain GLUT5-5, M9 + 47.5 g/L glutaric acid (neutralized with sodium hydroxide)
[33] = strain GLUT6-4, M9 + 47.5 g/L glutaric acid (neutralized with sodium hydroxide)
[34] = strain GLUT6-5, M9 + 47.5 g/L glutaric acid (neutralized with sodium hydroxide)
[35] = strain GLUT6-10, M9 + 47.5 g/L glutaric acid (neutralized with sodium hydroxide)
[36] = strain GLUT7-2, M9 + 47.5 g/L glutaric acid (neutralized with sodium hydroxide)
[37] = strain GLUT7-6, M9 + 47.5 g/L glutaric acid (neutralized with sodium hydroxide)
[38] = strain GLUT7-7, M9 + 47.5 g/L glutaric acid (neutralized with sodium hydroxide)
[39] = strain GLUT8-5, M9 + 47.5 g/L glutaric acid (neutralized with sodium hydroxide)
[40] = strain GLUT8-6, M9 + 47.5 g/L glutaric acid (neutralized with sodium hydroxide)
[41] = strain GLUT8-6, M9 + 47.5 g/L glutaric acid (neutralized), knockout experiment (Table 14)
[42] = strain GLUT8-9, M9 + 47.5 g/L glutaric acid (neutralized with sodium hydroxide)
[43] = strain MG1655, M9 + 47.5 g/L glutaric acid (neutralized with sodium hydroxide)
[44] = strain MG1655, M9 + 47.5 g/L glutaric acid (neutralized), knockout experiment (Table 14)
[45] = strain MG1655 kgtP::kan, M9 + 47.5 g/L glutaric acid (neutralized)
[46] = strain MG1655 proV::kan, M9 + 47.5 g/L glutaric acid (neutralized)
[47] = strain MG1655 ybjL::kan, M9 + 47.5 g/L glutaric acid (neutralized)
[48] = strain MG1655 ΔkgtP proV::kan, M9 + 47.5 g/L glutaric acid (neutralized)
[49] = strain MG1655 ΔkgtP sspA::kan, M9 + 47.5 g/L glutaric acid (neutralized)
[50] = strain MG1655 ΔkgtP ybjL::kan, M9 + 47.5 g/L glutaric acid (neutralized)
[51] = strain MG1655 ΔkgtP ΔproV ybjL::kan, M9 + 47.5 g/L glutaric acid (neutralized)

Compound: O=C(O)CCCC(=O)O [glutaric acid]
- mean growth rate μ [1, 4]: 0.466 h⁻¹
- mean lag time tlag [1, 4]: 7.4 h
- mean growth rate μ [1, 5]: 0.101 h⁻¹
- mean lag time tlag [1, 5]: 21.8 h
- mean growth rate μ [1, 6]: 0.487 h⁻¹
- mean lag time tlag [1, 6]: 6.1 h
- mean growth rate μ [1, 7]: 0.191 h⁻¹
- mean lag time tlag [1, 7]: 13.5 h
- mean growth rate μ [1, 8]: 0.491 h⁻¹
- mean lag time tlag [1, 8]: 6.7 h
- mean growth rate μ [1, 9]: 0.179 h⁻¹
- mean lag time tlag [1, 9]: 15.0 h
- mean growth rate μ [1, 10]: 0.520 h⁻¹
- mean lag time tlag [1, 10]: 6.2 h
- mean growth rate μ ([1]; strain MG1655 ΔkgtP proV::kan, M9 + 47.5 g/L glutarate (neutralized)): 0.251 h⁻¹
- mean growth rate μ [1, 11]: 0.505 h⁻¹
- mean lag time tlag [1, 11]: 6.3 h
- mean growth rate μ [1, 12]: 0.183 h⁻¹
- mean lag time tlag [1, 12]: 13.6 h
- mean growth rate μ [1, 13]: 0.473 h⁻¹
- mean lag time tlag [1, 13]: 6.1 h
- mean lag time tlag ([1]; strain MG1655 ΔkgtP sspA::kan, M9 + 47.5 g/L glutarate (neutralized)): 12.2 h
- mean growth rate μ [1, 14]: 0.541 h⁻¹
- mean lag time tlag [1, 14]: 6.6 h
- mean growth rate μ [1, 15]: 0.215 h⁻¹
- mean lag time tlag [1, 15]: 14.0 h
- mean growth rate μ [2, 16]: 0.304 h⁻¹
- mean lag time tlag [2, 16]: 5.1 h
- mean growth rate μ [2, 17]: 0.278 h⁻¹
- mean lag time tlag [2, 17]: 4.6 h
- mean growth rate μ [2, 18]: 0.319 h⁻¹
- mean lag time tlag [2, 18]: 6.4 h
- mean growth rate μ [2, 19]: 0.458 h⁻¹
- mean lag time tlag [2, 19]: 11.3 h
- mean growth rate μ [2, 20]: 0.442 h⁻¹
- mean lag time tlag [2, 20]: 10.8 h
- mean growth rate μ [2, 21]: 0.276 h⁻¹
- mean lag time tlag [2, 21]: 6.8 h
- mean growth rate μ [2, 22]: 0.298 h⁻¹
- mean lag time tlag [2, 22]: 6.5 h
- mean growth rate μ [2, 23]: 0.378 h⁻¹
- mean lag time tlag [2, 23]: 6.5 h
- mean growth rate μ [2, 24]: 0.284 h⁻¹
- mean lag time tlag [2, 24]: 5.6 h
- mean growth rate μ [2, 25]: 0.277 h⁻¹
- mean lag time tlag [2, 25]: 5.6 h
- mean growth rate μ [2, 26]: 0.324 h⁻¹
- mean lag time tlag [2, 26]: 8.3 h
- mean growth rate μ [2, 27]: 0.279 h⁻¹
- mean lag time tlag [2, 27]: 6.2 h
- mean growth rate μ [2, 28]: 0.312 h⁻¹
- mean lag time tlag [2, 28]: 7.1 h
- mean growth rate μ [2, 29]: 0.287 h⁻¹
- mean lag time tlag [2, 29]: 6.6 h
- mean growth rate μ [2, 30]: 0.297 h⁻¹
- mean lag time tlag [2, 30]: 6.9 h
- mean growth rate μ [2, 31]: 0.438 h⁻¹
- mean lag time tlag [2, 31]: 17.0 h
- mean growth rate μ [2, 32]: 0.349 h⁻¹
- mean lag time tlag [2, 32]: 14.5 h
- mean growth rate μ [2, 33]: 0.277 h⁻¹
- mean lag time tlag [2, 33]: 5.9 h
- mean growth rate μ [2, 34]: 0.300 h⁻¹
- mean lag time tlag [2, 34]: 6.5 h
- mean growth rate μ [2, 35]: 0.341 h⁻¹
- mean lag time tlag [2, 35]: 6.7 h
- mean growth rate μ [2, 36]: 0.318 h⁻¹
- mean lag time tlag [2, 36]: 6.6 h
- mean growth rate μ [2, 37]: 0.318 h⁻¹
- mean lag time tlag [2, 37]: 7.1 h
- mean growth rate μ [2, 38]: 0.283 h⁻¹
- mean lag time tlag [2, 38]: 7.8 h
- mean growth rate μ [2, 39]: 0.322 h⁻¹
- mean lag time tlag [2, 39]: 6.2 h
- mean growth rate μ [2, 40]: 0.347 h⁻¹
- mean lag time tlag [2, 40]: 7.1 h
- mean growth rate μ [2, 41]: 0.402 h⁻¹
- mean lag time tlag [2, 41]: 7.8 h
- mean growth rate μ [2, 42]: 0.345 h⁻¹
- mean lag time tlag [2, 42]: 7.4 h
- mean growth rate μ [2, 43]: 0.103 h⁻¹
- mean lag time tlag [2, 43]: 10.7 h
- mean growth rate μ [2, 44]: 0.100 h⁻¹
- mean lag time tlag [2, 44]: 10.4 h
- mean growth rate μ [2, 45]: 0.181 h⁻¹
- mean lag time tlag [2, 45]: 5.8 h
- mean growth rate μ [2, 46]: 0.085 h⁻¹
- mean lag time tlag [2, 46]: 0.6 h
- mean growth rate μ [2, 47]: 0.126 h⁻¹
- mean lag time tlag [2, 47]: 12.8 h
- mean growth rate μ [2, 48]: 0.244 h⁻¹
- mean lag time tlag [2, 48]: 6.5 h
- mean growth rate μ [2, 49]: 0.256 h⁻¹
- mean lag time tlag [2, 49]: 5.7 h
- mean growth rate μ [2, 50]: 0.213 h⁻¹
- mean lag time tlag [2, 50]: 6.0 h
- mean growth rate μ [2, 51]: 0.300 h⁻¹
- mean lag time tlag [2, 51]: 7.0 h
- tlag (lag time), mean ([3]; 10 g/L): 2.0 h
- μ (growth rate), mean ([3]; 10 g/L, M9+1% glucose, 37° C): 0.526 h⁻¹
- tlag (lag time), mean ([3]; 20 g/L): 1.9 h
- μ (growth rate), mean ([3]; 20 g/L): 0.377 h⁻¹
- tlag (lag time), mean ([3]; 30 g/L): 0.6 h
- μ (growth rate), mean ([3]; 30 g/L): 0.234 h⁻¹
- tlag (lag time), mean ([3]; 40 g/L): 0.7 h
- μ (growth rate), mean ([3]; 40 g/L): 0.132 h⁻¹
- tlag (lag time), mean ([3]; 50 g/L): 15.9 h
- μ (growth rate), mean ([3]; 50 g/L): 0.096 h⁻¹
- μ (growth rate), mean ([3]; 75 g/L): 0.000 h⁻¹
- maximum measured concentration at which exponentially growing K-12 MG1655 can grow ([3]; neutralized diacid in M9+1% glucose): 50 g/L

From US20230139445A1, “BACTERIAL CELLS WITH IMPROVED TOLERANCE TO DIACIDS” (priority 2016, published 2023)
